Columns and labels:
Type in all cases: cell-based
E. faecalis ATCC-29212 = test: MIC, broth microdilution, E. faecalis ATCC-29212; design: unit not given beside the values; settings: E. faecalis ATCC-29212, Gram +ve; pH 3; 18 to 24 hours
Method: (§1) MIC testing is conducted using the broth (Mueller Hinton Broth) microdilution procedures relevant to each organism group as established by the Clinical and Laboratory Standards Institute (CLSI; 3-7). MIC plates are prepared in accordance with CLSI (3-7). To prepare the test plates, automated liquid handlers are used to conduct serial dilutions and liquid transfers. Automated liquid handlers utilized in this study include the Multidrop 384 (Labsystems, Helsinki, Finland) and the Biomek 2000 (Beckman Coulter, Fullerton CA). The solution is diluted to desired pH using 1 M Citric Acid or 1 M NaOH buffer. A standardized inoculum of each test organism is prepared per CLSI methods (3, 5-7) to equal a 0.5 McFarland standard in the appropriate media followed by an additional 1:20 dilution (1:10 for anaerobes).
(§2) The plates are then inoculated with 10 μL of the diluted 0.5 McFarland suspension using the Biomek 2000 from low to high drug concentration, resulting in a final concentration of approximately 5×10^5 CFU/mL per well. An un-inoculated plate is incubated for the purpose of assessing solubility of the drug in the test media. The plates are stacked 3 to 4 high, covered with a sterile lid on the top plate, and incubated for 18 to 24 hours according to CLSI. The MIC is recorded as the lowest concentration of respective compound that inhibited visible growth of the organism.

E. coli MMX-8870 = test: MIC, broth microdilution, E. coli MMX-8870; settings: E. coli MMX-8870, Gram −ve; pH 3; 18 to 24 hours
Method: as §1, §2

[1] = tested on: Pseudomonas aeruginosa (27853); test: MIC, broth microdilution, Pseudomonas aeruginosa (27853); settings: pH 3, Mueller Hinton Broth, 18 to 24 hours, read-out: MIC
Method: as §1, §2

Escherichia coli (25922) = test: MIC, broth microdilution, Escherichia coli (25922); settings: pH 3, Mueller Hinton Broth, 18 to 24 hours, read-out: MIC
Method: as §1, §2

[2] = tested on: S. saprophyticus ATCC-49907; test: MIC, broth microdilution, S. saprophyticus ATCC-49907; design: unit not given beside the values; settings: S. saprophyticus ATCC-49907, Gram +ve; pH 3; 18 to 24 hours
Method: as §1, §2

Candida albicans (22972) = test: MIC, broth microdilution, Candida albicans (22972); settings: pH 3, Mueller Hinton Broth, 18 to 24 hours, read-out: MIC
Method: as §1, §2

E. cloacae ATCC BAA-2468 = test: MIC, broth microdilution, E. cloacae ATCC BAA-2468; design: unit not given beside the values; settings: E. cloacae ATCC BAA-2468, Gram −ve; pH 3; 18 to 24 hours
Method: as §1, §2

H. influenzae ATCC-49247 = test: MIC, broth microdilution, H. influenzae ATCC-49247; design: unit not given beside the values; settings: H. influenzae ATCC-49247, Gram −ve; pH 3; 18 to 24 hours
Method: as §1, §2

E. coli ATCC-25922 = test: MIC, broth microdilution, E. coli ATCC-25922; design: unit not given beside the values; settings: E. coli ATCC-25922, Gram −ve; pH 3; 18 to 24 hours
Method: as §1, §2

C. freundii CDC-0157 = test: MIC, broth microdilution, C. freundii CDC-0157; design: unit not given beside the values; settings: C. freundii CDC-0157, Gram −ve; pH 3; 18 to 24 hours
Method: as §1, §2

[3] = tested on: S. dysgalactiae ATCC-6644; test: MIC, broth microdilution, S. dysgalactiae ATCC-6644; design: unit not given beside the values; settings: S. dysgalactiae ATCC-6644, Gram +ve; pH 3; 18 to 24 hours
Method: as §1, §2

C. striatum ATCC-6940 = test: MIC, broth microdilution, C. striatum ATCC-6940; settings: C. striatum ATCC-6940, Gram +ve; pH 3; 18 to 24 hours
Method: as §1, §2

[4] = tested on: A. radioresistens MMX-8551; test: MIC, broth microdilution, A. radioresistens MMX-8551; design: unit not given beside the values; settings: A. radioresistens MMX-8551, Gram −ve; pH 3; 18 to 24 hours
Method: as §1, §2

S. aureus ATCC-29213 = test: MIC, broth microdilution, S. aureus ATCC-29213; design: unit not given beside the values; settings: S. aureus ATCC-29213, Gram +ve; pH 3; 18 to 24 hours
Method: as §1, §2

[5] = tested on: S. haemolyticus ATCC-29970; test: MIC, broth microdilution, S. haemolyticus ATCC-29970; settings: S. haemolyticus ATCC-29970, Gram +ve; pH 3; 18 to 24 hours
Method: as §1, §2

S. aureus ATCC -3591 = test: MIC, broth microdilution, S. aureus ATCC -3591; design: unit not given beside the values; settings: S. aureus ATCC -3591, Gram +ve; pH 3; 18 to 24 hours
Method: as §1, §2

E. faecium MMX-3355 = test: MIC, broth microdilution, E. faecium MMX-3355; design: unit not given beside the values; settings: E. faecium MMX-3355, Gram +ve; pH 3; 18 to 24 hours
Method: as §1, §2

[6] = tested on: Staphylococcus aureus (43330); test: MIC, broth microdilution, Staphylococcus aureus (43330); settings: pH 3, Mueller Hinton Broth, 18 to 24 hours, read-out: MIC
Method: as §1, §2

M. morganii CDC-0519 = test: MIC, broth microdilution, M. morganii CDC-0519; design: unit not given beside the values; settings: M. morganii CDC-0519, Gram −ve; pH 3; 18 to 24 hours
Method: as §1, §2

E. faecium ATCC-35667 = test: MIC, broth microdilution, E. faecium ATCC-35667; settings: E. faecium ATCC-35667, Gram +ve; pH 3; 18 to 24 hours
Method: as §1, §2

E. faecalis MMX-3353 = test: MIC, broth microdilution, E. faecalis MMX-3353; settings: E. faecalis MMX-3353, Gram +ve; pH 3; 18 to 24 hours
Method: as §1, §2

S. pyogenes ATCC-49399 = test: MIC, broth microdilution, S. pyogenes ATCC-49399; design: unit not given beside the values; settings: S. pyogenes ATCC-49399, Gram +ve; pH 3; 18 to 24 hours
Method: as §1, §2

P. mirabilis CDC-0155 = test: MIC, broth microdilution, P. mirabilis CDC-0155; design: unit not given beside the values; settings: P. mirabilis CDC-0155, Gram −ve; pH 3; 18 to 24 hours
Method: as §1, §2

K. pneumoniae ATCC-43816 = test: MIC, broth microdilution, K. pneumoniae ATCC-43816; design: unit not given beside the values; settings: K. pneumoniae ATCC-43816, Gram −ve; pH 3; 18 to 24 hours
Method: as §1, §2

S. agalactiae ATCC-13813 = test: MIC, broth microdilution, S. agalactiae ATCC-13813; design: unit not given beside the values; settings: S. agalactiae ATCC-13813, Gram +ve; pH 3; 18 to 24 hours
Method: as §1, §2

A. baumannii ATCC-19606 = test: MIC, broth microdilution, A. baumannii ATCC-19606; design: unit not given beside the values; settings: A. baumannii ATCC-19606, Gram −ve; pH 3; 18 to 24 hours
Method: as §1, §2

[7] = tested on: K. pneumoniae ATCC BAA-2146; test: MIC, broth microdilution, K. pneumoniae ATCC BAA-2146; design: unit not given beside the values; settings: K. pneumoniae ATCC BAA-2146, Gram −ve; pH 3; 18 to 24 hours
Method: as §1, §2

P. aeruginosa ATCC-27853 = test: MIC, broth microdilution, P. aeruginosa ATCC-27853; design: unit not given beside the values; settings: P. aeruginosa ATCC-27853, Gram −ve; pH 3; 18 to 24 hours
Method: as §1, §2

SMILES | MIC (E. faecalis ATCC-29212) | MIC (E. coli MMX-8870) | MIC [1] [µg/mL] | MIC (Escherichia coli (25922)) [µg/mL] | MIC [2] | MIC (Candida albicans (22972)) [µg/mL] | MIC (E. cloacae ATCC BAA-2468) | MIC (H. influenzae ATCC-49247) | MIC (E. coli ATCC-25922) | MIC (C. freundii CDC-0157) | MIC [3] | MIC (C. striatum ATCC-6940) | MIC [4] | MIC (S. aureus ATCC-29213) | MIC [5] | MIC (S. aureus ATCC -3591) | MIC (E. faecium MMX-3355) | MIC [6] [µg/mL] | MIC (M. morganii CDC-0519) | MIC (E. faecium ATCC-35667) | further results
CCCCOP(=O)(O)OC[C@H]1O[C@@H](n2ccc(N)nc2=O)C(F)(F)[C@@H]1O [LAI-006, ((2R,3R,5R)-5-(4-amino-2-oxopyrimidin-1(2H)-yl)-4,4-difluoro-3-hydroxytetrahydrofuran-2-yl)methyl butyl hydrogen phosphate] | 0.39 | 0.78 | 800 | 600 | 0.10 | 50000 | 0.39 | 0.78 | 0.39 | 3.13 | 0.05 | 0.78 | 0.39 | 1.56 | 0.10 | 3.13 | 3.13 | 2300 | 3.13 | 1.56 | MIC (E. faecalis MMX-3353): 3.13; MIC (S. pyogenes ATCC-49399): 0.39; MIC (P. mirabilis CDC-0155): 3.13; MIC (K. pneumoniae ATCC-43816): 0.78; MIC (S. agalactiae ATCC-13813): 0.10; MIC (A. baumannii ATCC-19606): 0.39; MIC [7]: 0.78; MIC (P. aeruginosa ATCC-27853): 0.78
CCCCOP(=O)(O)OC[C@H]1O[C@@H](n2ccc(N(C)C)nc2=O)C[C@@H]1O [LAI-008, butyl (((2R,3S,5R)-5-(4-(N,N-dimethylamino)-2-oxopyrimidin-1(2H)-yl)-3-hydroxytetrahydrofuran-2-yl)methyl) hydrogen phosphate] | 3.13 | 12.50 | 5000 | 1000 | 3.13 | 50000 | 12.50 | 0.78 | 6.25 | 3.13 | 3.12 | 3.12 | 12.50 | 1.56 | 0.39 | 6.25 | 3.13 | 25000 | 3.13 | 3.13 | MIC (E. faecalis MMX-3353): 6.25; MIC (S. pyogenes ATCC-49399): 3.12; MIC (P. mirabilis CDC-0155): 3.13; MIC (K. pneumoniae ATCC-43816): 12.50; MIC (S. agalactiae ATCC-13813): 3.12; MIC (A. baumannii ATCC-19606): 12.50; MIC [7]: 12.50; MIC (P. aeruginosa ATCC-27853): 5.63
CCCCOP(=O)(O)OC[C@H]1O[C@@H](n2ccc(N(C)C)nc2=O)[C@H](OC)[C@@H]1O [LAK-021, (2R,3S,4R,5R)-5-(4-N,N-dimethylamino-2-oxopyrimidin-1(2H)-yl)-3-hydroxy-4-methoxy-tetrahydrofuran-2-methyl butyl phosphate] | 3.13 | 1.56 | 800 | 1250 | 1.56 | > 50000 | 1.56 | 0.39 | 0.78 | 1.56 | 0.78 | 0.78 | 1.56 | 3.13 | 3.13 | 6.25 | 3.13 | 4500 | 1.56 | 3.13 | MIC (E. faecalis MMX-3353): 3.13; MIC (S. pyogenes ATCC-49399): 0.78; MIC (P. mirabilis CDC-0155): 1.56; MIC (K. pneumoniae ATCC-43816): 1.56; MIC (S. agalactiae ATCC-13813): 0.78; MIC (A. baumannii ATCC-19606): 1.56; MIC [7]: 1.56; MIC (P. aeruginosa ATCC-27853): 0.78

— patent US20260297118A1, “SUBSTITUTED PYRIMIDINONE AND AZAPYRIMIDINONE COMPOUNDS, COMPOSITIONS, AND USES THEREOF” (LAKEWOOD AMEDEX, INC., priority 2023, published 2026)
